Patent US5198419A, “Formulated medicines for enhancing the efficacy of beta-lactam antibiotics in prophylaxis and treatment against infectious disease due to pathogenic bacteria” (Immuno Japan Inc., priority 1989, dated 1993)

How the values were obtained:
Escherichia coli #11 = assay: Example 6: experimental infection in mice, ampicillin with or without apolactoferrin; type: in vivo, strain ddY; conditions: p.o. immediately after 1.2×10^6 CFU/mouse
Protocol: (§1) For ED50 values, a range of amounts of antibiotics is given in the examples (e.g., penicillin G: 0.4, 0.2, 0.1, 0.05 mg/mouse). To calculate the ED50, groups of mice in the monotherapy groups and groups of mice in the combined therapy groups received the indicated amount of antibiotic (e.g., one group received 0.4 mg/mouse of penicillin G, one group received 0.2 mg/mouse of penicillin G, one group received 0.1 mg/mouse of penicillin G, one group received 0.05 mg/mouse of penicillin G).
Male mice, strain ddY, five weeks old, weighing an average of 21.5 g, were randomly allocated into groups (n=10), and they were intraperitoneally injected with Escherichia coli #11, 1.2×10^6 CFU/mouse. Immediately after the injection, the untreated control group was orally given 0.2 ml of distilled water, the second through the fifth groups were treated once orally by ampicillin (8, 4, 2 and 1 mg/mouse), and the sixth through the ninth groups with ampicillin (4, 2, 1 and 0.5 mg/mouse) plus apolactoferrin (1 mg/mouse) in 0.2 ml of distilled water. The mice were fed ad libitum and observed for one week under the same conditions as described in Example 1. […] It is apparent from the results that lactoferrin not only potentiates the efficacy of the cephalosporin class but also the penicillin class of antibiotics.

Proteus mirabilis GN79 = assay: Example 7: experimental infection in mice, ampicillin with or without native lactoferrin; type: in vivo, strain ddY; conditions: GN79, po, 168 h, 1.3 × 10^6 CFU/mouse
Protocol: as §1
Male mice, strain ddY, five weeks old, were randomly allocated into groups (n=10), and were intraperitoneally injected with Proteus mirabilis GN79 (1.3×10^6 CFU/mouse) or with Escherichia coli #11 (1.7×10^6 CFU/mouse) or with Klebsiella pneumoniae 3K25 (1.5×10^6 CFU/mouse). The doses are 1,000 times greater than the minimum lethal dose. Immediately after the injection, the first eight groups were orally given ampicillin, the second eight groups were orally given cephalexin, and the third eight groups were orally given cefaclor, respectively, each simultaneously with or without native lactoferrin (1 mg/mouse) in 0.2 ml of distilled water (see Table 7). All the mice were fed ad libitum and observed for one week under the same conditions as described in Example 1.

[1] = test system: Klebsiella pneumoniae strain 3K25; assay: Example 4: experimental infection in mice, cefotetan with or without native lactoferrin; type: in vivo; conditions: p.o. 1 h after 1×10^6 CFU/mouse
Protocol: as §1
The experimental design is similar to that of Example 3. The mice groups (n=6) were intraperitoneally injected with Klebsiella pneumoniae strain 3K25, 1×10^6 CFU/mouse, and one hour after the injection, orally active cephalosporin, cefotetan (2.0, 1.0, 0.5 and 0.25 mg/mouse) was orally administered with or without native lactoferrin (0.4 mg/mouse) in 0.2 ml physiological saline.

## CC1(C)S[C@@H]2[C@H](NC(=O)[C@H](N)c3ccccc3)C(=O)N2[C@H]1C(=O)O [ampicillin]
Escherichia coli #11; ampicillin combined therapy with apolactoferrin (1 mg/mouse)
  ED50: 0.75 mg/mouse
Escherichia coli #11; ampicillin monotherapy
  ED50: 6.02 mg/mouse
Proteus mirabilis GN79; ampicillin alone
  ED50: 133 mg/kg
Proteus mirabilis GN79; ampicillin with lactoferrin (1 mg/mouse)
  ED50: 24.9 mg/kg

## CO[C@@]1(NC(=O)C2SC(=C(C(N)=O)C(=O)O)S2)C(=O)N2C(C(=O)O)=C(CSc3nnnn3C)CS[C@@H]21 (stereo partly drawn) [cefotetan]
[1]; cefotetan combined therapy with native lactoferrin (0.4 mg/mouse)
  ED50: 0.16 mg/mouse
[1]; cefotetan monotherapy
  ED50: 0.50 mg/mouse
